Drawing on patent US20130217678A1, “PHARMACEUTICAL AGENT COMPRISING QUINOLONE COMPOUND” (OTSUKA PHARMACEUTICAL CO., LTD., priority 2008, published 2013), this text covers activity and melting point for 17 compounds.

The melting point is the temperature, or range, at which the solid turns liquid.

The subject of series [1] is human neuroblastoma cell lines SH-SY5Y treated with 1-methyl-4-phenylpyridinium (MPP+). Put plainly: Improvement of mitochondrial function (Alamar Blue mitochondrial oxidation reduction activity) in MPP+-treated SH-SY5Y cells. It is filed as cell-based. As to conditions: 1.5 mM MPP+, relative to cells in DMSO alone = 100%, read-out: Fluorescence Intensity (%); for activity at 0.01 µg/mL: compound 0.01 μg/ml; for activity at 0.03 µg/mL: compound 0.03 μg/ml; for activity at 0.1 µg/mL: compound 0.1 μg/ml; for activity at 0.3 µg/mL: compound 0.3 μg/ml; for activity at 1 µg/mL: compound 1 μg/ml. As for the experimental part: In human neuroblastoma cell lines SH-SY5Y in which mitochondrial function was damaged by MPP^+ treatment (Bollimuntha S. et al., J Biol Chem, 280, 2132-2140 (2005) and Shang T. et al., J Biol Chem, 280, 34644-34653 (2005)), the improvement of mitochondrial function was evaluated on the basis of the measurement value for mitochondrial oxidation reduction activity using Alamar Blue fluorescent dye after the compound addition (Nakai M. et al, Exp Neurol, 179, 103-110 (2003)).
The human neuroblastoma cell lines SH-SY5Y were cultured in Dulbecco's Modified Eagle's Medium containing 10% fetal bovine serum (DMEM containing 50 units/ml penicillin and 50 μg/ml streptomycin as antibiotics) at 37° C. in the presence of 5% carbon dioxide. Cells were scattered on a poly-D-lysine-coated 96-well black plate at a concentration of 3−6×10^4 cells/cm^2 (medium amount: 100 μl/well) and cultured in the medium for two days. Further, the medium was changed to DMEM containing a 1% N2 supplement (N2-DMEM) or to a medium (100 μl/well) in which 1.5 mM MPP^+ was dissolved. The cells were cultured therein for 39 to 48 hours, and then subjected to a mitochondrial oxidation reduction activity measurement system. A sample compound that had been previously dissolved in dimethyl sulfoxide (DMSO) was diluted with N2-DMEM and added in a volume of 10 μl/well 24 hours before the activity measurement (final compound concentration: 0.01 to 1 μg/ml).
After removal of the medium by suction, a balanced salt solution containing 10% Alamar Blue (154 mM sodium chloride, 5.6 mM potassium chloride, 2.3 mM calcium chloride, 1.0 mM magnesium chloride, 3.6 mM sodium hydrogen carbonate, 5 mM glucose, 5 mM HEPES, pH 7.2) was added in a volume of 100 μl/well, and reacted in an incubator at 37° C. for 1 hour. The fluorescent intensity was detected using a fluorescence detector (a product of Hamamatsu Photonics K.K., excitation wavelength: 530 nm, measurement wavelength: 580 nm) to thereby measure the mitochondrial oxidation reduction activity.
The fluorescent intensity of the well of the cells cultured in a medium containing MPP^+ and each of the sample compounds was relatively evaluated based on the 100% fluorescent intensity of the well of the cells cultured in a medium containing DMSO alone (final concentration: 0.1%).

Molecules are shown by their SMILES.

The compound `CCCOc1c(C)cc(C)c2c(=O)c(-c3ccc(OC)cc3)c[nH]c12` [Example 23, 3-(4-Methoxyphenyl)-5,7-dimethyl-8-propoxy-1H-quinolin-4-one] registered a melting point of 174 to 175 °C. Further, in series [1], the activity at 0.01 µg/mL was 51%, the activity at 0.03 µg/mL came out at 63%, the activity at 0.1 µg/mL amounted to 67% and the activity at 0.3 µg/mL stood at 68%. Further, the activity at 1 µg/mL in series [1] is 59%.
The compound `CCCOc1ccc(C(F)(F)F)c2c(=O)c(-c3ccc(OC)cc3)c[nH]c12` [Example 24, 3-(4-Methoxyphenyl)-8-propoxy-5-trifluoromethyl-1H-quinolin-4-one] showed a melting point of 220 to 221 °C. In series [1], the activity at 0.01 µg/mL is 50%, the activity at 0.03 µg/mL turned out to be 57%, the activity at 0.1 µg/mL turned out to be 64% and the activity at 0.3 µg/mL was 63%. The activity at 1 µg/mL in series [1] worked out at 36%.
`CCCOc1cccc2c(=O)c(-c3ccccc3C(F)(F)F)c[nH]c12` [Example 32, 8-Propoxy-3-(2-trofluoromethylphenyl)-1H-quinolin-4-one] came in with a melting point of 224 °C. Besides, in series [1], the activity at 0.01 µg/mL turned out to be 49%, the activity at 0.03 µg/mL is 53%, the activity at 0.1 µg/mL worked out at 54% and the activity at 0.3 µg/mL worked out at 57%. The activity at 1 µg/mL in series [1] came to 61%.
As for `CCCOc1cc(F)cc2c(=O)c(-c3ccc(OC)cc3)c[nH]c12` [Example 34, 6-Fluoro-3-(4-methoxyphenyl)-8-propoxy-1H-quinolin-4-one], the melting point was in the range of 153 to 154 °C. Also, in series [1], the activity at 0.01 µg/mL was found to be 47%, the activity at 0.03 µg/mL came to 53%, the activity at 0.1 µg/mL is 53% and the activity at 0.3 µg/mL worked out at 63%. The activity at 1 µg/mL in series [1] is 53%.
The compound `CCCOc1c(OC)cc(C)c2c(=O)c(-c3ccc(OC)cc3)c[nH]c12` [Example 37, 7-Methoxy-3-(4-methoxyphenyl)-5-methyl-8-propoxy-1H-quinolin-4-one] yielded a melting point of 195 to 196 °C. In series [1], the activity at 0.01 µg/mL was 47%, the activity at 0.03 µg/mL was found to be 54%, the activity at 0.1 µg/mL was 55% and the activity at 0.3 µg/mL stood at 60%. Moreover, the activity at 1 µg/mL in series [1] came to 59%.
With `CCCOc1ccc(OC)c2c(=O)c(-c3ccc(Cl)cc3Cl)c[nH]c12` [Example 38, 3-(2,4-Dichlorophenyl)-5-methoxy-8-propoxy-1H-quinolin-4-one], the melting point was 125 °C. Besides, in series [1], the activity at 0.01 µg/mL was determined as 47%, the activity at 0.03 µg/mL was 54%, the activity at 0.1 µg/mL is 67% and the activity at 0.3 µg/mL was 75%. Further, the activity at 1 µg/mL in series [1] was found to be 65%.
`CCCOc1ccc(OC)c2c(=O)c(-c3cccc4ccccc34)c[nH]c12` [Example 51, 5-Methoxy-3-naphthalen-1-yl-8-propoxy-1H-quinolin-4-one] showed a melting point of 130 to 133 °C. In series [1], the activity at 0.01 µg/mL was 37%, the activity at 0.03 µg/mL was determined as 45%, the activity at 0.1 µg/mL is 54% and the activity at 0.3 µg/mL stood at 65%. In series [1], the activity at 1 µg/mL was 49%.
As for `CCCOc1ccc(C)c2c(=O)c(-c3ccsc3)c[nH]c12` [Example 58, 5-Methyl-8-propoxy-3-thiophen-3-yl-1H-quinolin-4-one], the melting point is 104 to 107 °C. Besides, in series [1], the activity at 0.01 µg/mL was determined as 42%, the activity at 0.03 µg/mL came out at 53%, the activity at 0.1 µg/mL was determined as 60% and the activity at 0.3 µg/mL was determined as 61%. In addition, in series [1], the activity at 1 µg/mL was determined as 55%.
Take `CCCOc1ccc(C)c2c(=O)c(-c3ccc4c(c3)OCO4)c[nH]c12` [Example 60, 3-Benzo[1,3]dioxol-5-yl-5-methyl-8-propoxy-1H-quinolin-4-one]: the melting point was in the range of 110 to 115 °C. For the same compound, in series [1], the activity at 0.01 µg/mL was found to be 52%, the activity at 0.03 µg/mL turned out to be 65%, the activity at 0.1 µg/mL came out at 75% and the activity at 0.3 µg/mL turned out to be 70%. Also, the activity at 1 µg/mL in series [1] is 44%.
`CCCOc1ccc(C)c2c(=O)c(-c3csc4ccccc34)c[nH]c12` [Example 63, 3-Benzo[b]thiophen-3-yl-5-methyl-8-propoxy-1H-quinolin-4-one] registered a melting point of 80 to 82 °C. For the same compound, in series [1], the activity at 0.01 µg/mL came to 40%, the activity at 0.03 µg/mL came to 48%, the activity at 0.1 µg/mL was found to be 57% and the activity at 0.3 µg/mL was found to be 43%. In series [1], the activity at 1 µg/mL was determined as 21%.
For `CCCOc1ccc(COC)c2c(=O)c(-c3ccc(OC)cc3)c[nH]c12` [Example 64, 5-Methoxymethyl-3-(4-methoxyphenyl)-8-propoxy-1H-quinolin-4-one], the melting point lay in the range of 81 to 83 °C. In series [1], the activity at 0.01 µg/mL stood at 51%, the activity at 0.03 µg/mL was 56%, the activity at 0.1 µg/mL came out at 63% and the activity at 0.3 µg/mL worked out at 53%. Besides, the activity at 1 µg/mL in series [1] was determined as 38%.
Regarding `COc1ccc(-c2c[nH]c3c(N4CCCC4)ccc(C)c3c2=O)cc1` [Example 68, 3-(4-Methoxyphenyl)-5-methyl-8-pyrrolidin-1-yl-1H-quinolin-4-one], the melting point fell in the range of 177 to 178 °C. Also, in series [1], the activity at 0.01 µg/mL amounted to 49%, the activity at 0.03 µg/mL worked out at 56%, the activity at 0.1 µg/mL worked out at 62% and the activity at 0.3 µg/mL was determined as 57%. In addition, the activity at 1 µg/mL in series [1] is 33%.
In turn, `CCCCc1ccc(C(=O)N(C)C)c2c(=O)c(-c3ccc(OC)cc3)c[nH]c12` [Example 82, 8-Butyl-3-(4-methoxyphenyl)-4-oxo-1,4-dihydroquinolin-5-carboxylic acid dimethylamide] came in with a melting point of 198 to 200 °C. In addition, in series [1], the activity at 0.01 µg/mL was 63%, the activity at 0.03 µg/mL is 62%, the activity at 0.1 µg/mL came out at 62% and the activity at 0.3 µg/mL came to 69%. Further, the activity at 1 µg/mL in series [1] is 81%.
Compound `COc1ccc(-c2c[nH]c3c(OCC4CC4)cc(C)c(C)c3c2=O)cc1` [Example 83, 8-Cyclopropylmethoxy-3-(4-methoxyphenyl)-5,6-dimethyl-1H-quinolin-4-one] gave a melting point of 99 to 101 °C. Also, in series [1], the activity at 0.01 µg/mL turned out to be 65%, the activity at 0.03 µg/mL was 70%, the activity at 0.1 µg/mL worked out at 67% and the activity at 0.3 µg/mL is 62%. Moreover, the activity at 1 µg/mL in series [1] amounted to 29%.
In the case of `COc1ccc(-c2c[nH]c3c(Br)ccc(C)c3c2=O)cc1` [Example 86, 8-Bromo-3-(4-methoxyphenyl)-5-methyl-1H-quinolin-4-one], the melting point lay within 185 to 186 °C. Further, in series [1], the activity at 0.01 µg/mL worked out at 60%, the activity at 0.03 µg/mL was 65%, the activity at 0.1 µg/mL stood at 65% and the activity at 0.3 µg/mL was determined as 65%. Further, the activity at 1 µg/mL in series [1] worked out at 52%.
In turn, `CCCOc1ccc(C(=O)N(C)C)c2c(=O)c(-c3ccc(OC)cc3)c[nH]c12` [Example 87, 3-(4-Methoxyphenyl)-4-oxo-8-propoxy-1,4-dihydroquinolin-5-carboxylic acid dimethylamide] had a melting point of 218 to 220 °C. In series [1], the activity at 0.01 µg/mL is 57%, the activity at 0.03 µg/mL is 57%, the activity at 0.1 µg/mL was 60% and the activity at 0.3 µg/mL amounted to 65%. The activity at 1 µg/mL in series [1] was found to be 66%.
Regarding `CCCOc1ccc(C)c2c(=O)c(-c3ccncc3)c[nH]c12` [Example 95, 5-Methyl-8-propoxy-3-pyridin-4-yl-1H-quinolin-4-one], the melting point lay within 112 to 113 °C. For the same compound, in series [1], the activity at 0.01 µg/mL worked out at 51%, the activity at 0.03 µg/mL came out at 56%, the activity at 0.1 µg/mL was 57% and the activity at 0.3 µg/mL was 61%. In addition, in series [1], the activity at 1 µg/mL was 47%.
